# Experimental data reported in PubChem BioAssay (NCI).
# Where “and” joins values, the source holds several entries; their conditions need not be identical. Identical values can stand only once.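 Dose response: 5 concentrations. Exposure: 48 h. Format: 96-well plates. Endpoint: linear interpolation; highest concentration if not reached. GI50 is the concentration that inhibits growth by half. TGI: total growth inhibition.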
# Tests used:
# Assay in all cases: NCI anticancer screen, dose series, 48 h
# NCI-H226 lung = system: NCI-H226 lung
# NCI-H23 lung = system: NCI-H23 lung
# NCI-H460 lung = system: NCI-H460 lung
# NCI-H522 lung = system: NCI-H522 lung
# NCI/ADR-RES ovarian = system: NCI/ADR-RES ovarian
# OVCAR-3 ovarian = system: OVCAR-3 ovarian
# OVCAR-4 ovarian = system: OVCAR-4 ovarian
# OVCAR-5 ovarian = system: OVCAR-5 ovarian
# OVCAR-8 ovarian = system: OVCAR-8 ovarian
# PC-3 prostate = system: PC-3 prostate
# RPMI-8226 leukemia = system: RPMI-8226 leukemia
# RXF 393 renal = system: RXF 393 renal
# SF-268 CNS = system: SF-268 CNS
# SF-295 CNS = system: SF-295 CNS
# SF-539 CNS = system: SF-539 CNS
# SK-MEL-2 melanoma = system: SK-MEL-2 melanoma
# SK-MEL-28 melanoma = system: SK-MEL-28 melanoma
# SK-MEL-5 melanoma = system: SK-MEL-5 melanoma
# SK-OV-3 ovarian = system: SK-OV-3 ovarian
# SN12C renal = system: SN12C renal
# SNB-19 CNS = system: SNB-19 CNS
# SNB-75 CNS = system: SNB-75 CNS
# SR leukemia = system: SR leukemia
# SW-620 colon = system: SW-620 colon
# T-47D breast = system: T-47D breast
# TK-10 renal = system: TK-10 renal
# U251 CNS = system: U251 CNS
# UACC-257 melanoma = system: UACC-257 melanoma
# UACC-62 melanoma = system: UACC-62 melanoma
# UO-31 renal = system: UO-31 renal
smiles,measurement,setting,value
COC(=O)/C=C/c1cc(O)c2c(c1)C(C(=O)OC)C(c1ccc(O)c(O)c1)O2 (stereo unspecified),TGI,NCI-H226 lung,24.3 µM and > 100 µM
same,GI50,NCI-H23 lung,0.134 µM and 0.075 µM
same,TGI,NCI-H23 lung,54.7 µM and > 100 µM
same,GI50,NCI-H460 lung,1.46 µM and 0.363 µM
same,TGI,NCI-H460 lung,12.3 µM and 12.1 µM
same,GI50,NCI-H522 lung,0.0286 µM
same,TGI,NCI-H522 lung,3.45 µM and 0.379 µM
same,GI50,NCI/ADR-RES ovarian,0.11 µM and 0.0614 µM
same,TGI,NCI/ADR-RES ovarian,> 100 µM
same,GI50,OVCAR-3 ovarian,< 0.0488 µM
same,GI50,OVCAR-4 ovarian,0.34 µM and 0.353 µM
same,TGI,OVCAR-4 ovarian,62.2 µM and > 75.9 µM
same,GI50,OVCAR-5 ovarian,4.28 µM and 2.95 µM
same,TGI,OVCAR-5 ovarian,> 100 µM
same,GI50,OVCAR-8 ovarian,0.526 µM and 0.0809 µM
same,TGI,OVCAR-8 ovarian,> 54.9 µM and 12 µM
same,GI50,PC-3 prostate,0.573 µM and 0.817 µM
same,TGI,PC-3 prostate,69 µM and 65.8 µM
same,GI50,RPMI-8226 leukemia,0.132 µM
same,TGI,RPMI-8226 leukemia,16.5 µM and 10.5 µM
same,GI50,RXF 393 renal,0.0472 µM
same,TGI,RXF 393 renal,86.4 µM and > 100 µM
same,GI50,SF-268 CNS,0.721 µM and 0.0833 µM
same,TGI,SF-268 CNS,> 89.8 µM
same,GI50,SF-295 CNS,0.344 µM and 0.143 µM
same,TGI,SF-295 CNS,15.4 µM and 9.85 µM
same,GI50,SF-539 CNS,0.255 µM
same,TGI,SF-539 CNS,0.72 µM and 1.19 µM
same,GI50,SK-MEL-2 melanoma,0.454 µM and 0.093 µM
same,TGI,SK-MEL-2 melanoma,35.2 µM and > 55 µM
same,TGI,SK-MEL-28 melanoma,60.8 µM and > 100 µM
same,GI50,SK-MEL-5 melanoma,< 0.0455 µM and 0.0566 µM
same,TGI,SK-MEL-5 melanoma,5.45 µM and 4.29 µM
same,GI50,SK-OV-3 ovarian,1 µM and 0.585 µM
same,TGI,SK-OV-3 ovarian,71.7 µM and 35.7 µM
same,GI50,SN12C renal,0.614 µM
same,TGI,SN12C renal,> 100 µM
same,GI50,SNB-19 CNS,0.131 µM and 0.0868 µM
same,TGI,SNB-19 CNS,> 100 µM
same,TGI,SNB-75 CNS,> 49.7 µM and 64.2 µM
same,GI50,SR leukemia,0.051 µM and 0.0369 µM
same,TGI,SR leukemia,> 54.9 µM and 6 µM
same,GI50,SW-620 colon,0.108 µM
same,TGI,SW-620 colon,> 100 µM
same,GI50,T-47D breast,1.55 µM
same,TGI,T-47D breast,57.9 µM
same,GI50,TK-10 renal,5.24 µM and 1.27 µM
same,TGI,TK-10 renal,67.5 µM and > 23.5 µM
same,GI50,U251 CNS,0.116 µM
same,TGI,U251 CNS,46.2 µM and 23.2 µM
same,GI50,UACC-257 melanoma,11.5 µM and 4.5 µM
same,TGI,UACC-257 melanoma,63.3 µM and 48.7 µM
same,GI50,UACC-62 melanoma,0.0678 µM
same,TGI,UACC-62 melanoma,4.56 µM and 27.9 µM
same,GI50,UO-31 renal,0.855 µM and 0.301 µM
same,TGI,UO-31 renal,23.6 µM and 30.7 µM
